Data as given in patent US11400079B2, “Antibacterial monobactams” (University of Notre Dame du Lac, priority 2017, dated 2022).
≈ marks a conversion by molar mass, not a printed value. Counter-ions that a name gives are not always drawn. Like-named read-outs stand apart in the source and are kept apart here.

Assays:
[1] = test system: Gram-negative bacteria; assay: Antibacterial activity against tested Gram-negative strains (summary in words); assay type: cell-based; details: tested strains of Gram-negative bacteria
Description: (§1) General Methods. All solvents and reagents were obtained from commercial sources and used without further purification unless otherwise stated. General methods of purification of compounds involved the use column chromatography with silica gel (230-400 mesh) purchased from Silicycle, Quebec City, Canada. The reactions were monitored by TLC on precoated Merck 60 F254 silica gel plates and visualized using UV light (254 nm).
(§2) Antibacterial assays were performed using iron depleted media as described previously (J. Med. Chem. 2017, 60, 4577).

[2] = test system: A.baumannii ISR14-005; assay: MIC antibacterial assay (iron depleted media); assay type: cell-based, Acinetobacter baumannii
Description: as §1, §2

[3] = test system: E. coli DCO; assay: MIC antibacterial assay (iron depleted media); assay type: cell-based; details: Escherichia coli; E. coli DCO; MH2 broth with 160 μM bipyridyl added; read-out: MIC
Description: as §1, §2

[4] = test system: P. aeruginosa ARC 3506; assay: MIC antibacterial assay (iron depleted media); assay type: cell-based; details: Pseudomonas aeruginosa, ARC3506, P. aeruginosa ARC 3506, read-out: MIC
Description: as §1, §2

[5] = test system: Proteus mirabilis X235; assay: MIC antibacterial assay (iron depleted media); assay type: cell-based; details: Proteus mirabilis X235; MH2 broth with 160 μM bipyridyl added; read-out: MIC
Description: as §1, §2

[6] = test system: Citrobacter freuendii ATCC 29063; assay: MIC antibacterial assay (iron depleted media); assay type: cell-based; details: ATCC29063; Citrobacter freuendii ATCC 29063; MH2 broth with 160 μM bipyridyl added; read-out: MIC
Description: as §1, §2

[7] = test system: A. baumannii ATCC BAA 1797; assay: MIC antibacterial assay (iron depleted media); assay type: cell-based; details: Acinetobacter baumannii, BAA1797; A. baumannii ATCC BAA 1797; MH2 broth with 160 μM bipyridyl added; read-out: MIC
Description: as §1, §2

[8] = test system: A. baumannii ATCC 17961; assay: MIC antibacterial assay (iron depleted media); assay type: cell-based; details: Acinetobacter baumannii, ATCC17961; A. baumannii ATCC 17961; MH2 broth with 160 μM bipyridyl added; read-out: MIC
Description: as §1, §2

[9] = test system: P. aeruginosa ARC 3502; assay: MIC antibacterial assay (iron depleted media); assay type: cell-based; details: Pseudomonas aeruginosa, read-out: MIC
Description: as §1, §2

[10] = test system: A. baumannii ATCC17978-PNT-165; assay: MIC antibacterial assay (iron depleted media); assay type: cell-based; details: Acinetobacter baumannii
Description: as §1, §2

[11] = test system: Enterobacter aerogenes X816; assay: MIC antibacterial assay (iron depleted media); assay type: cell-based; details: Klebsiella aerogenes; Enterobacter aerogenes X816; MH2 broth with 160 μM bipyridyl added; read-out: MIC
Description: as §1, §2

[12] = test system: P. aeruginosa 01; assay: MIC antibacterial assay (iron depleted media); assay type: cell-based; details: Pseudomonas aeruginosa; P. aeruginosa 01; MH2 broth with 160 μM bipyridyl added; read-out: MIC
Description: as §1, §2

[13] = test system: Salmonella typhimurium ATCC13311; assay: MIC antibacterial assay (iron depleted media); assay type: cell-based; details: Salmonella enterica; Salmonella typhimurium ATCC13311; MH2 broth with 160 μM bipyridyl added; read-out: MIC
Description: as §1, §2

[14] = test system: P. aeruginosa ISR-14-004; assay: MIC antibacterial assay (iron depleted media); assay type: cell-based
Description: as §1, §2

[15] = test system: P. aeruginosa KW799/wt; assay: MIC antibacterial assay (iron depleted media); assay type: cell-based; details: Pseudomonas aeruginosa; P. aeruginosa KW799/wt; MH2 broth with 160 μM bipyridyl added; read-out: MIC
Description: as §1, §2

[16] = test system: S. aureus SG 511; assay: MIC antibacterial assay (iron depleted media); assay type: cell-based; details: Staphylococcus aureus, SG511; S. aureus SG 511; MH2 broth with 160 μM bipyridyl added; read-out: MIC
Description: as §1, §2

[17] = test system: P. aeruginosa ISR-14-003; assay: MIC antibacterial assay (iron depleted media); assay type: cell-based
Description: as §1, §2

[18] = test system: A. baumannii ARC 5079; assay: MIC antibacterial assay (iron depleted media); assay type: cell-based, Acinetobacter baumannii; details: A. baumannii ARC 5079
Description: as §1, §2

[19] = test system: A. baumannii ATCC 17978-PNT-320; assay: MIC antibacterial assay (iron depleted media); assay type: cell-based, Acinetobacter baumannii
Description: as §1, §2

[20] = test system: A. baumannii ATCC BAA 1800; assay: MIC antibacterial assay (iron depleted media); assay type: cell-based, Acinetobacter baumannii; details: tazobactam alone @ 10 μg/ml
Description: as §1, §2

[21] = test system: A. baumannii ATCC BAA 1793; assay: MIC antibacterial assay (iron depleted media); assay type: cell-based, Acinetobacter baumannii; details: A. baumannii ATCC BAA 1793
Description: as §1, §2

[22] = test system: B. dolosa AU0018; assay: MIC antibacterial assay (iron depleted media); assay type: cell-based; details: Burkholderia dolosa; B. dolosa AU0018; MH2 broth with 160 μM bipyridyl added; read-out: MIC
Description: as §1, §2

[23] = test system: strong β-lactamase producing strains of P. aeruginosa (ARC 3502 and ARC 3506); assay: Antibacterial activity, alone and in combination with tazobactam; assay type: cell-based; details: co-administration with tazobactam
Description: as §1, §2

[24] = Acinetobacter baumannii, ISR14005, A. baumannii ISR14-005 (clinical isolate), compound alone, MH2 broth with 160 μM bipyridyl added, read-out: MIC
[25] = compound alone, MH2 broth with 160 μM bipyridyl added
[26] = Pseudomonas aeruginosa, ISR14004, P. aeruginosa ISR-14-004 (clinical isolate), compound alone, MH2 broth with 160 μM bipyridyl added, read-out: MIC
[27] = Pseudomonas aeruginosa, ISR14003, P. aeruginosa ISR-14-003 (clinical isolate), compound alone, MH2 broth with 160 μM bipyridyl added, read-out: MIC
[28] = Acinetobacter baumannii, ATCC17978

Molecule | antibacterial activity (in words) [1] | MIC [2, 24] | MIC [3] | MIC [5] | MIC [6] | MIC [10] | MIC [11] | MIC [12] | MIC [13] | MIC [14, 26] | MIC [15] | MIC [16] | MIC [17, 27] | MIC [19, 28] | MIC [22] | also measured
CO/N=C(\C(=O)NC1C(=O)N(S(=O)(=O)O)[C@H]1CSCCN)c1cnc(N)s1 (some centres unmarked) [Compound 35, (E)-3-(2-(2-aminothiazol-5-yl)-2-(methoxyimino)acetamido)-2-(((2-ammonioethyl)thio)methyl)-4-oxoazetidine-1-sulfonate, potassium salt] | moderately active | > 50 µM | 25 µM | 12.5 µM | 12.5 µM | 50 µM | 0.2 µM | > 50 µM | 12.5 µM | > 50 µM | > 50 µM | > 50 µM | > 50 µM | – | – | MIC [4, 25]: > 50 µM; MIC [7]: > 50 µM; MIC [8]: 50 µM; MIC ([9]; ARC3502, compound alone, MH2 broth with 160 μM bipyridyl added): > 50 µM
C[C@]1(Cn2ccnn2)[C@H](C(=O)O)N2C(=O)C[C@H]2S1(=O)=O [Tazobactam, tazobactam, reference compound] | – | – | – | – | – | – | – | – | – | – | – | – | – | < 10 µg/mL | > 50 µM | MIC ([18]; Acinetobacter baumannii, ARC5079, tazobactam alone, read-out: MIC): > 10 µg/mL; inhibition [20]: very slight; inhibition ([21]; tazobactam alone @ 10 μg/ml): very slight; MIC ([2]; Acinetobacter baumannii, ISR14005, A. baumannii ISR14-005, tazobactam alone, read-out: MIC): > 20 µg/mL; MIC ([4]; tazobactam alone): > 10 µg/mL; MIC ([9]; ARC3502, tazobactam alone): > 10 µg/mL; MIC ([14]; Pseudomonas aeruginosa, ISR14004, P. aeruginosa ISR-14-004, tazobactam alone, read-out: MIC): > 20 µg/mL; MIC ([17]; Pseudomonas aeruginosa, ISR14003, P. aeruginosa ISR-14-003, tazobactam alone, read-out: MIC): > 20 µg/mL
C[C@H]1[C@H](NC(=O)/C(=N\OC(C)(C)C(=O)O)c2csc(N)n2)C(=O)N1S(=O)(=O)O [Aztreonam, aztreonam, reference compound] | – | > 50 µM | 0.1 µM (≈ 0.0435 µg/mL) | 0.05 µM (≈ 0.0218 µg/mL) | 0.1 µM (≈ 0.0435 µg/mL) | 12.5 µM (≈ 5.44 µg/mL) | 0.2 µM (≈ 0.0871 µg/mL) | 3 µM (≈ 1.31 µg/mL) | 0.1 µM (≈ 0.0435 µg/mL) | 50 µM | 1.6 µM (≈ 0.697 µg/mL) | > 50 µM | 6 µM | 50 µM | > 50 µM | effect of combination with tazobactam on activity (in words) [23]: minimal effects; MIC ([18]; Acinetobacter baumannii, ARC5079, compound alone, MH2 broth with 160 μM bipyridyl added, read-out: MIC): 25 to 50 µM; MIC ([2]; Acinetobacter baumannii, ISR14005, A. baumannii ISR14-005 (clinical isolate), in combination with tazobactam, read-out: MIC (+tazo)): 50 µM; MIC ([14]; Pseudomonas aeruginosa, ISR14004, P. aeruginosa ISR-14-004 (clinical isolate), in combination with tazobactam, read-out: MIC (+tazo)): 0.4 µM; MIC ([17]; Pseudomonas aeruginosa, ISR14003, P. aeruginosa ISR-14-003 (clinical isolate), in combination with tazobactam, read-out: MIC (+tazo)): 3 µM
Polymixin B [reference compound] | excellent activity | – | – | – | – | – | – | – | – | – | – | – | – | – | – | MIC [18, 25]: <0.025 to 0.1 µM; MIC ([19]; A. baumannii ATCC 17978-PNT-320 (cephalosporinase producing organism), MH2 broth with 160 μM bipyridyl added): <0.025 µM; MIC ([21]; MH2 broth with 160 μM bipyridyl added): <0.025 µM; MIC ([2]; A. baumannii ISR14-005 (clinical isolate), compound alone, MH2 broth with 160 μM bipyridyl added, read-out: MIC): <0.025 µM; MIC ([14]; P. aeruginosa ISR-14-004 (clinical isolate), compound alone, MH2 broth with 160 μM bipyridyl added, read-out: MIC): 0.05 µM; MIC ([17]; P. aeruginosa ISR-14-003 (clinical isolate), compound alone, MH2 broth with 160 μM bipyridyl added, read-out: MIC): 0.1 µM
